# From the kinase profiling compilation of Christmann-Franck et al. (2016)
# Assays:
# Assay in all cases: KINOMEscan competition binding
# Conditions in all cases: compound 10.0 µM
# BLK (human) = BLK (human) (UniProt P51451)
# CAMK4 (human) = CAMK4 (human) (UniProt Q16566)
# [1] = tested on: EGFR (human), P00533 [G719C]
# ERBB2 (human) = ERBB2 (human) (UniProt P04626)
# FGFR2 (human) = FGFR2 (human) (UniProt P21802)
# FGR (human) = FGR (human) (UniProt P09769)
# FRK (human) = FRK (human) (UniProt P42685)
# GRK7 (human) = GRK7 (human) (UniProt Q8WTQ7)
# ICK (human) = ICK (human) (UniProt Q9UPZ9)
# IGF1R (human) = IGF1R (human) (UniProt P08069)
# [2] = tested on: KIT (human), P10721 [D816H]
# MAP3K2 (human) = MAP3K2 (human) (UniProt Q9Y2U5)
# MAP4K4 (human) = MAP4K4 (human) (UniProt O95819)
# MAPK3 (human) = MAPK3 (human) (UniProt P27361)
# MAST1 (human) = MAST1 (human) (UniProt Q9Y2H9)
# MERTK (human) = MERTK (human) (UniProt Q12866)
# MST1R (human) = MST1R (human) (UniProt Q04912)
# MUSK (human) = MUSK (human) (UniProt O15146)
# MYLK (human) = MYLK (human) (UniProt Q15746)
# MYLK4 (human) = MYLK4 (human) (UniProt Q86YV6)
# MYO3B (human) = MYO3B (human) (UniProt Q8WXR4)
# NEK2 (human) = NEK2 (human) (UniProt P51955)
# PAK4 (human) = PAK4 (human) (UniProt O96013)
# PI4KB (human) = PI4KB (human) (UniProt Q9UBF8)
# [3] = tested on: PIK3CA (human), P42336 [H1047L]
# PIM2 (human) = PIM2 (human) (UniProt Q9P1W9)
# PTK2B (human) = PTK2B (human) (UniProt Q14289)
# ROCK2 (human) = ROCK2 (human) (UniProt O75116)
# RPS6KA2 KD2 (human) = RPS6KA2 KD2 (human) (UniProt Q15349)
# SRMS (human) = SRMS (human) (UniProt Q9H3Y6)
# STK10 (human) = STK10 (human) (UniProt O94804)
# STK38 (human) = STK38 (human) (UniProt Q15208)
# TAOK1 (human) = TAOK1 (human) (UniProt Q7L7X3)
# TAOK2 (human) = TAOK2 (human) (UniProt Q9UL54)
# TGFBR1 (human) = TGFBR1 (human) (UniProt P36897)
# TGFBR2 (human) = TGFBR2 (human) (UniProt P37173)
# TRPM6 (human) = TRPM6 (human) (UniProt Q9BX84)
# TXK (human) = TXK (human) (UniProt P42681)
# TYRO3 (human) = TYRO3 (human) (UniProt Q06418)
# ULK1 (human) = ULK1 (human) (UniProt O75385)
# Sequence of PIM2 (human) (Q9P1W9 whole entry, looked up): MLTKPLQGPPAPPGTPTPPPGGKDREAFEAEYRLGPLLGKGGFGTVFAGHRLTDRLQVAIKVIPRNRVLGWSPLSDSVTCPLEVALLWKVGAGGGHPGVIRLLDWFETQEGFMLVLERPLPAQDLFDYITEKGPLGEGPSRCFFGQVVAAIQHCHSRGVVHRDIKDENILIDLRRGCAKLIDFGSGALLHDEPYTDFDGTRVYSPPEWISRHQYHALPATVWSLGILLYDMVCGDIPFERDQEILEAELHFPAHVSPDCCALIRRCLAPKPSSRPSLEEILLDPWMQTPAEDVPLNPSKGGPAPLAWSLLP
# Sequence of ICK (human) (Q9UPZ9 whole entry, looked up): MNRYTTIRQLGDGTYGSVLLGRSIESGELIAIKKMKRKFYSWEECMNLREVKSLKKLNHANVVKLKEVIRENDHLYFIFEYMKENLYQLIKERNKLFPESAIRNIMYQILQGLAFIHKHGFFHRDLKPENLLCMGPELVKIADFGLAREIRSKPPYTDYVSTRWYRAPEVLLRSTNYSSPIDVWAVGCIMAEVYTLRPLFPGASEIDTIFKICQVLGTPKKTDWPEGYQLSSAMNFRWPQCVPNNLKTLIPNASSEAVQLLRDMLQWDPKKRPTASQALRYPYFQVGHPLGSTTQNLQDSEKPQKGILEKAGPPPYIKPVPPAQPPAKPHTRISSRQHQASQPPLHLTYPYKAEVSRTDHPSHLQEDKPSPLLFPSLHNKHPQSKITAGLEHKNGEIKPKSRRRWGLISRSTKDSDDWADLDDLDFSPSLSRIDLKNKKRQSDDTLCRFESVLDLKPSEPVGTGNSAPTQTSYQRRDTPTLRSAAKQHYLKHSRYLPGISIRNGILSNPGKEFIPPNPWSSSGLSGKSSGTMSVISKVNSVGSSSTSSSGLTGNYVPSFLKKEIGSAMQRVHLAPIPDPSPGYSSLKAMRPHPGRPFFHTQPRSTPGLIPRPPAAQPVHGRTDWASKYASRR
# Sequence of MAPK3 (human) (P27361 whole entry, looked up): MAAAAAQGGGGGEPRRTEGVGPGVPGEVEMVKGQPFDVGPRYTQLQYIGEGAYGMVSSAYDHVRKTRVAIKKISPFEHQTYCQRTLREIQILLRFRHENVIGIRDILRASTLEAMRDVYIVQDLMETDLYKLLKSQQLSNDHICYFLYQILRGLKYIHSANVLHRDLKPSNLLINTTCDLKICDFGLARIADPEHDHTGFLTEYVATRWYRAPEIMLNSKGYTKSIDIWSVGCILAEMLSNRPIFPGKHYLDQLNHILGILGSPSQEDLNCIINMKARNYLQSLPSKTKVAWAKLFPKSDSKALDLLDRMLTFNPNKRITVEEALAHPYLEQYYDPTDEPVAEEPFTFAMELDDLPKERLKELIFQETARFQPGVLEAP
# Sequence of MYLK4 (human) (Q86YV6 whole entry, looked up): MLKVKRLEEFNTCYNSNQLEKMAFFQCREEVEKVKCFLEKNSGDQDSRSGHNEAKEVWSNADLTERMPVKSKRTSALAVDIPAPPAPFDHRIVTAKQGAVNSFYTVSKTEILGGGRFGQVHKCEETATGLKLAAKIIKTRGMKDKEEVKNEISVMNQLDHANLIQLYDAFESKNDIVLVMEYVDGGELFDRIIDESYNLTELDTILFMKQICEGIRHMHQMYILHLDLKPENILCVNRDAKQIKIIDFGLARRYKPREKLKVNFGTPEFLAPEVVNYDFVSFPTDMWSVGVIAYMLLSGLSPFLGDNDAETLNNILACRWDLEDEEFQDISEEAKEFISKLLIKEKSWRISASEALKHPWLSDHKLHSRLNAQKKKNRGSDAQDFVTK
# Sequence of TGFBR2 (human) (P37173 whole entry, looked up): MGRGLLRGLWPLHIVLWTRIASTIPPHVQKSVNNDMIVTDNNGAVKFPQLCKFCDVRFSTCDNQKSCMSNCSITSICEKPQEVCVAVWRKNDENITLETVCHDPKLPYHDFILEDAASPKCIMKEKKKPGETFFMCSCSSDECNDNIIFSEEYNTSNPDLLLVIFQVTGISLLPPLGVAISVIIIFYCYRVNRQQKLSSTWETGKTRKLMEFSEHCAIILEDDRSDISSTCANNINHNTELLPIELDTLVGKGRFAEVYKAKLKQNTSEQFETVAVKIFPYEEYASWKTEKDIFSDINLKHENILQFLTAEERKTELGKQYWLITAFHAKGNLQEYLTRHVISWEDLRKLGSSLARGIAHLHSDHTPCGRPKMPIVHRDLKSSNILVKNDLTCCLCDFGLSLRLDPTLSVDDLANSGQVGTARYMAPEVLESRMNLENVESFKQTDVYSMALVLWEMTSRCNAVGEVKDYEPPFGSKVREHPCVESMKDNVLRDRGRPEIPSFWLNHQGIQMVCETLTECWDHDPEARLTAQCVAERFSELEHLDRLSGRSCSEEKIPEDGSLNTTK
# Sequence of FGR (human) (P09769 whole entry, looked up): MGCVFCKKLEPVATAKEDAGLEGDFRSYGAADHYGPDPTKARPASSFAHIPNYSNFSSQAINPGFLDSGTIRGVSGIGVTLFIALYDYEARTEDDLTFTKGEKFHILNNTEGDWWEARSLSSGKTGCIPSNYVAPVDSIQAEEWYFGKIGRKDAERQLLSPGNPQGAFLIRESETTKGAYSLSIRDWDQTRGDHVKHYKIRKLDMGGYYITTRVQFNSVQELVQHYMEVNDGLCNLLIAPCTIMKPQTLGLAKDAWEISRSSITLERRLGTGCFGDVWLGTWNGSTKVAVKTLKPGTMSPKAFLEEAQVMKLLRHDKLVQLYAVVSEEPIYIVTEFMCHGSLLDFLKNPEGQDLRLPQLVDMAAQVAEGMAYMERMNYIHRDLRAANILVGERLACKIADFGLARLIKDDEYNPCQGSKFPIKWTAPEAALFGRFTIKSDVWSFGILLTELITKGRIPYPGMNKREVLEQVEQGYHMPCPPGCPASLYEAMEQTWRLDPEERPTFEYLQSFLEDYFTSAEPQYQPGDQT
# Sequence of PIK3CA (human), P42336 [H1047L] (P42336 whole entry H1047L, looked up): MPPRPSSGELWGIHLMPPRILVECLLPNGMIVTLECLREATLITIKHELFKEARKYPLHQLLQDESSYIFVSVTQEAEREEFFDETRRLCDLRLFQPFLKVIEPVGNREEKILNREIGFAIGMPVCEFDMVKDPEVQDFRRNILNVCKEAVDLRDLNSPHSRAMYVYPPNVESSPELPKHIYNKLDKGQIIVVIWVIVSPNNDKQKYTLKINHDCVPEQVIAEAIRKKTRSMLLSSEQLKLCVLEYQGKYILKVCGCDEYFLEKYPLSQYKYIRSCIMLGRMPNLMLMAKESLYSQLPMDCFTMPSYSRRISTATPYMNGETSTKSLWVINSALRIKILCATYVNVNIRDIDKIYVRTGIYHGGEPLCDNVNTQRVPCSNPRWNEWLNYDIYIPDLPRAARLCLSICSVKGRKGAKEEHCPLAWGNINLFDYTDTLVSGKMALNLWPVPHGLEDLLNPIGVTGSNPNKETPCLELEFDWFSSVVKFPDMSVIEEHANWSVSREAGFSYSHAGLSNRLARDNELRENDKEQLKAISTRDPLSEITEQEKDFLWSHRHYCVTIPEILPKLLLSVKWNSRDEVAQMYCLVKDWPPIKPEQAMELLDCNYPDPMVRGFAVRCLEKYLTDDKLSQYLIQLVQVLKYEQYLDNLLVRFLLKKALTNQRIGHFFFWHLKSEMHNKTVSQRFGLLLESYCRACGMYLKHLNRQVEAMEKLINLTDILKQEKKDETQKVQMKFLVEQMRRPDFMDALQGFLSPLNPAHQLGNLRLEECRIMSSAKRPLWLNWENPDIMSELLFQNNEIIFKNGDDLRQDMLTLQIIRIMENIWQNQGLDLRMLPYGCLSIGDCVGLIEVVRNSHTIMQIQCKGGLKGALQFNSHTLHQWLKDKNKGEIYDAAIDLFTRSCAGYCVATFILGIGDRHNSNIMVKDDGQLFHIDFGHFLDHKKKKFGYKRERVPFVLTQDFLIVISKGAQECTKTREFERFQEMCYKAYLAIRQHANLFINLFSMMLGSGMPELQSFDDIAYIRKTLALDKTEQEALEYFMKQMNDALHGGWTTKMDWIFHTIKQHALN
# Sequence of BLK (human) (P51451 whole entry, looked up): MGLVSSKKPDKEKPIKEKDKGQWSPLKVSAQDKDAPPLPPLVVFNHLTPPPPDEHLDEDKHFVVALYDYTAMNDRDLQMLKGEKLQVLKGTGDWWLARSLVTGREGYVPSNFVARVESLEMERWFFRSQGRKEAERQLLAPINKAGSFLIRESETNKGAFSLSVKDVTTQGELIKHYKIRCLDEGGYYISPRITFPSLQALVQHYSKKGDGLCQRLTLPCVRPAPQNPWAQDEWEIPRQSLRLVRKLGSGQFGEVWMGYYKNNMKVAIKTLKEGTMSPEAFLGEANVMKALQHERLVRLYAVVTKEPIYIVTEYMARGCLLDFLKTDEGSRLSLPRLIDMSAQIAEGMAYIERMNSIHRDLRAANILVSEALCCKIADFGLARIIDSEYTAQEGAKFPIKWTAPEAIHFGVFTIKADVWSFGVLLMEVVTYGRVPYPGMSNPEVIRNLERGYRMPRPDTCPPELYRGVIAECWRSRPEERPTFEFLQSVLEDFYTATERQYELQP
# Sequence of PAK4 (human) (O96013 whole entry, looked up): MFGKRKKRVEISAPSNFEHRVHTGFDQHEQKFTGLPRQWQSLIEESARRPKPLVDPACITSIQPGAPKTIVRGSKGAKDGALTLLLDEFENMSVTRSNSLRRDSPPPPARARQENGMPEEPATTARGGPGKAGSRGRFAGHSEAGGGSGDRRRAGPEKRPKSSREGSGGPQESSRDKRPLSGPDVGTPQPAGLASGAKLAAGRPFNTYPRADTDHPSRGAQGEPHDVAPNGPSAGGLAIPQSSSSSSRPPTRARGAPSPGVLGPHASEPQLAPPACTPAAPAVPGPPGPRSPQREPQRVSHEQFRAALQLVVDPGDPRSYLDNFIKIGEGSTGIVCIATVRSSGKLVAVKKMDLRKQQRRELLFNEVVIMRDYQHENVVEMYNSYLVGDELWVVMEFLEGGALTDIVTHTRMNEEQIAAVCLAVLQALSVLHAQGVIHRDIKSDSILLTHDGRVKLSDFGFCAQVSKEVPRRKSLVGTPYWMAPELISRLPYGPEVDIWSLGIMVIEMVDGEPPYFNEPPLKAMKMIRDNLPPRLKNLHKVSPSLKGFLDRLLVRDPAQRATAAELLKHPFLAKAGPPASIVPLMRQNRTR
Compound,"kinase still bound, per cent of control (BLK (human)) [%]","kinase still bound, per cent of control (CAMK4 (human)) [%]","kinase still bound, per cent of control [1] [%]","kinase still bound, per cent of control (ERBB2 (human)) [%]","kinase still bound, per cent of control (FGFR2 (human)) [%]","kinase still bound, per cent of control (FGR (human)) [%]","kinase still bound, per cent of control (FRK (human)) [%]","kinase still bound, per cent of control (GRK7 (human)) [%]","kinase still bound, per cent of control (ICK (human)) [%]","kinase still bound, per cent of control (IGF1R (human)) [%]","kinase still bound, per cent of control [2] [%]","kinase still bound, per cent of control (MAP3K2 (human)) [%]","kinase still bound, per cent of control (MAP4K4 (human)) [%]","kinase still bound, per cent of control (MAPK3 (human)) [%]","kinase still bound, per cent of control (MAST1 (human)) [%]","kinase still bound, per cent of control (MERTK (human)) [%]","kinase still bound, per cent of control (MST1R (human)) [%]","kinase still bound, per cent of control (MUSK (human)) [%]","kinase still bound, per cent of control (MYLK (human)) [%]","kinase still bound, per cent of control (MYLK4 (human)) [%]",also measured
N#Cc1cc(-c2ccnc(Nc3ccc(-n4cnc(-c5cccnc5)n4)cc3)n2)cc(N2CCOCC2)c1,86,100,71,100,91,54,92,70,2.6,51,50,31,24,100,100,57,100,92,100,26,"kinase still bound, per cent of control (MYO3B (human)): 100%; kinase still bound, per cent of control (NEK2 (human)): 94%; kinase still bound, per cent of control (PAK4 (human)): 31%; kinase still bound, per cent of control (PI4KB (human)): 100%; kinase still bound, per cent of control [3]: 100%; kinase still bound, per cent of control (PIM2 (human)): 100%; kinase still bound, per cent of control (PTK2B (human)): 20%; kinase still bound, per cent of control (ROCK2 (human)): 25%; kinase still bound, per cent of control (RPS6KA2 KD2 (human)): 75%; kinase still bound, per cent of control (SRMS (human)): 62%; kinase still bound, per cent of control (STK10 (human)): 39%; kinase still bound, per cent of control (STK38 (human)): 92%; kinase still bound, per cent of control (TAOK1 (human)): 20%; kinase still bound, per cent of control (TAOK2 (human)): 37%; kinase still bound, per cent of control (TGFBR1 (human)): 73%; kinase still bound, per cent of control (TGFBR2 (human)): 100%; kinase still bound, per cent of control (TRPM6 (human)): 100%; kinase still bound, per cent of control (TXK (human)): 60%; kinase still bound, per cent of control (TYRO3 (human)): 87%; kinase still bound, per cent of control (ULK1 (human)): 37%"
CCN1CCN(Cc2ccc(NC(=O)c3ccc(C)c(/C=C/c4cnc5[nH]ccc5c4OC)c3)cc2C(F)(F)F)CC1,0.15,100,0.05,0,3.7,0.15,0.6,77,99,100,36,0.65,4.2,100,100,9.2,100,0,90,23,"kinase still bound, per cent of control (MYO3B (human)): 40%; kinase still bound, per cent of control (NEK2 (human)): 100%; kinase still bound, per cent of control (PAK4 (human)): 86%; kinase still bound, per cent of control (PI4KB (human)): 91%; kinase still bound, per cent of control [3]: 100%; kinase still bound, per cent of control (PIM2 (human)): 100%; kinase still bound, per cent of control (PTK2B (human)): 0.75%; kinase still bound, per cent of control (ROCK2 (human)): 34%; kinase still bound, per cent of control (RPS6KA2 KD2 (human)): 42%; kinase still bound, per cent of control (SRMS (human)): 0.7%; kinase still bound, per cent of control (STK10 (human)): 0%; kinase still bound, per cent of control (STK38 (human)): 72%; kinase still bound, per cent of control (TAOK1 (human)): 0.75%; kinase still bound, per cent of control (TAOK2 (human)): 0.5%; kinase still bound, per cent of control (TGFBR1 (human)): 100%; kinase still bound, per cent of control (TGFBR2 (human)): 5.7%; kinase still bound, per cent of control (TRPM6 (human)): 100%; kinase still bound, per cent of control (TXK (human)): 0.7%; kinase still bound, per cent of control (TYRO3 (human)): 100%; kinase still bound, per cent of control (ULK1 (human)): 8.5%"
